In the test the test system is fungus F. oxysporum. The experiment in a line: microbe, parasite or virus in culture. The note with it: for inhibition at 2000 µg/mL / inhibition at 5000 µg/mL / inhibition at 7500 µg/mL / inhibition at 10000 µg/mL: Fusarium oxysporum. The class given is cell-based. The protocol: The % of inhibition is calculated with respect to the control based on the areas of growth of the fungus according to the following equation: % of inhibition with respect to FOM = 100−((AP)/(AC)*100) [formula] wherein: • AP: area of growth of the fungus in the target dish. • AC: Area of growth of the fungus in the control dish.

The mark [1] stands for this setting: Concentration 2 g/L, Table 4 concentration screening, read-out: Percentages of inhibition.
The mark [2] stands for this setting: Concentration 5 g/L, Table 4 concentration screening, read-out: Percentages of inhibition.
The mark [3] stands for this setting: Concentration 7.5 g/L, Table 4 concentration screening, read-out: Percentages of inhibition.
The mark [4] stands for this setting: Concentration 10 g/L, Table 4 concentration screening, read-out: Percentages of inhibition.
Setting [5] is: solution at 5 g/L, Table 3, read-out: % of inhibition.

Read-outs that look alike come from different tables or passages of the source.

As a reminder, the inhibition is the share of the control response that was lost under treatment. With `C[C@H](N)C(=O)O` [Alanine, L-Alanine], under setting [1], the inhibition at 2000 µg/mL was 9.24 ± 0.85%. The inhibition at 5000 µg/mL under setting [2] turned out to be 9.48 ± 1.06% and the inhibition at 5000 µg/mL under setting [5] turned out to be 9.23 ± 0.71%. Further, the inhibition at 7500 µg/mL under setting [3] was 13.3 ± 1.01%. Also, the inhibition at 10000 µg/mL under setting [4] amounted to 14.4 ± 0.87%.
As to `N.O=CO` [Ammonium formate], the “% of inhibition” value (solution at 5 g/L, Table 3) is reported as 1.54 ± 0.15%.
With `CCO` [Ethanol], the inhibition at 5000 µg/mL (read-out: % of inhibition) came to 3.07 ± 0.45%.
For `OCC(O)CO` [Glycerol], under setting [5], the inhibition at 5000 µg/mL came out at 1.85 ± 0.1%.
`N[C@@H](Cc1ccccc1)C(=O)O` [Phenylalanine, L-Phenylalanine]: under setting [1], the inhibition at 2000 µg/mL turned out to be 17 ± 2.24%. In addition, the inhibition at 5000 µg/mL worked out at 19.5 ± 1.85% under setting [2] and 16.1 ± 1.05% under setting [5]. Besides, the inhibition at 7500 µg/mL under setting [3] is 19.2 ± 1.65%. Besides, under setting [4], the inhibition at 10000 µg/mL amounted to 21.7 ± 1.74%.
With `CC(=O)O` [Sodium acetate, Anhydrous sodium acetate], the inhibition at 5000 µg/mL (read-out: % of inhibition) was determined as 1.54 ± 0.05%.
Consider `O=C[O-].[Na+]` [Sodium formate], for which the Percentages of inhibition is 5.66 ± 0.41 (Concentration 2 g/L, Table 4 concentration screening); 12.33 ± 0.98 (Concentration 5 g/L, Table 4 concentration screening); 12.54 ± 1.54 (Concentration 7.5 g/L, Table 4 concentration screening); 12.14 ±0.52 (Concentration 10 g/L, Table 4 concentration screening). In addition, for the setting “solution at 5 g/L, Table 3”, the “% of inhibition” value is 13.38 ± 0.95%.
